The text below walks through data of patent publication US9790229B2, “Bruton's tyrosine kinase inhibitors” (priority 2009, dated 2017).

Structures are written as SMILES. Where only a bound is given, the exact number is not on record here.

Sequence of BTK (Q06187 whole entry): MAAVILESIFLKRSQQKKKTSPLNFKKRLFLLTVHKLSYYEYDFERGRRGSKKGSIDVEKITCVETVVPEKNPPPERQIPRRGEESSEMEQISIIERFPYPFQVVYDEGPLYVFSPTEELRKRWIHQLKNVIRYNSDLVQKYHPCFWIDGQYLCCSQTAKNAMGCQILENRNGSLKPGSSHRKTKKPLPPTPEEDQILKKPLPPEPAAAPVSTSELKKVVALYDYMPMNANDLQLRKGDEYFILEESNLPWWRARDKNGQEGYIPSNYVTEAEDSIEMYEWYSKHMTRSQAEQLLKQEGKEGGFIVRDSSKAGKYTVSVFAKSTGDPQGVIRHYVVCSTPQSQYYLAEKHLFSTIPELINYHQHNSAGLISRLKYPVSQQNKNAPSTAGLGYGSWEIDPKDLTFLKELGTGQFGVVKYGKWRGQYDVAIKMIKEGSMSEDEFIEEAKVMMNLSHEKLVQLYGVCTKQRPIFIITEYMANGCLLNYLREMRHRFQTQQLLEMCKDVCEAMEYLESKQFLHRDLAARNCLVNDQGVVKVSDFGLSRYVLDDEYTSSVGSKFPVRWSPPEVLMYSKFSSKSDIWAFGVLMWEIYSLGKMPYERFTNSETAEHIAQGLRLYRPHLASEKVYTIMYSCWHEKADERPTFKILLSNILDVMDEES

The first assay concerns the target BTK (Homo sapiens (Human), UniProt Q06187). The experiment in a line: In vitro BTK kinase assay: BTK-POLYGAT-LS ASSAY.
Settings: not given
As to `COc1ccc(NC(=O)Nc2cccc(C3CCCN(c4ncnc5[nH]ccc45)C3)c2)cc1` (stereo not drawn) [compound 201], the half-maximal inhibitory concentration (IC50) was 1 to 10 µM.
As to `O=C(Nc1cc(C2CCCN(c3ncnc4[nH]ccc34)C2)ccc1OC(F)(F)F)c1ccccc1F` (stereo not drawn) [Cmpd 89, N-(5-(1-(7H-pyrrolo[2,3-d]pyrimidin-4-yl)piperidin-3-yl)-2-(trifluoromethoxy)phenyl)-2-fluorobenzamide], the IC50 lay in the range of 1 to 10 µM.
The same measure, in the same setting: the value for `N#C/N=C(\Nc1cccc(C2CCCN(c3ncnc4[nH]ccc34)C2)c1)Nc1c(Cl)cccc1Cl` (stereo not drawn) [compound 269] was 0.1 to 0.999 µM.
Same read-out and setting: the value for `CN1CCN(c2ccccc2NC(=O)Nc2cccc(C3CCCN(c4ncnc5[nH]ccc45)C3)c2)CC1` (stereo not drawn) [compound 209] was 1 to 10 µM.
Regarding `O=C(Nc1cccc(C2CCCN(c3ncnc4[nH]ccc34)C2)c1)c1cccc(Cl)c1` (stereo not drawn) [Cmpd 4, N-(3-(1-(7H-pyrrolo[2,3-d]pyrimidin-4-yl)piperidin-3-yl)phenyl)-3-chlorobenzamide], the IC50 was 1 to 10 µM.
On the same count and under the same terms, the value for `Nc1ncnc(N2CC[C@@H](C(F)(F)F)[C@H](N3CCC[C@H](Nc4cc(Cl)cc(Cl)c4)C3=O)C2)c1F` [compound 336, trans (3S)-1′-(6-Amino-5-fluoropyrimidin-4-yl)-3-(3,5-dichlorophenylamino)-4′-(trifluoromethyl)-1,3′-bipiperidin-2-one] was 1 to 10 µM; that for `O=C(NCC1COCCO1)Nc1cccc(C2CCCN(c3ncnc4[nH]ccc34)C2)c1` (stereo not drawn) [compound 214] was 1 to 10 µM.
`Nc1ncnc(N2CCC[C@@H](N3CCCC(Nc4cc(F)cc(Cl)c4)C3=O)C2)c1Cl` (stereo partly drawn) [compound 289, (3′R)-1′-(6-Amino-5-chloropyrimidin-4-yl)-3-(3-chloro-5-fluorophenylamino)-1,3′-bipiperidin-2-one]: the half-inhibitory concentration (IC50) fell in the range of 0.1 to 0.999 µM.
As for `N#CNc1cc(N2CCC[C@@H](N3CCCC(Nc4cc(F)cc(Cl)c4)C3=O)C2)ncn1` (stereo partly drawn) [compound 358], the half-inhibitory concentration (IC50) is 0.1 to 0.999 µM.
The same measure, in the same setting: the figure for `Cc1c(N)ncnc1N1CCCC(c2cccc(NC(=O)Nc3ccccc3)c2)C1` (stereo not drawn) [Cmpd 98, 1-(3-(1-(6-Amino-5-methylpyrimidin-4-yl)piperidin-3-yl)phenyl)-3-phenylurea] is 1 to 10 µM; for `O=C(NC[C@H]1CCCC[C@@H]1O)Nc1cccc(C2CCCN(c3ncnc4[nH]ccc34)C2)c1` (stereo partly drawn) [compound 199] it is 1 to 10 µM.
The compound `CC(C)CCNC(=O)Nc1cccc(C2CCCN(c3ncnc4[nH]ccc34)C2)c1` (stereo not drawn) [compound 186] gave an IC50 of 1 to 10 µM.
The same measure, in the same setting: the value for `O=C(COc1ccccc1)Nc1cccc(C2CCCN(c3ncnc4[nH]ccc34)C2)c1` (stereo not drawn) [Cmpd 22, N-(3-(1-(7H-pyrrolo[2,3-d]pyrimidin-4-yl)piperidin-3-yl)phenyl)-2-phenoxyacetamide] was 1 to 10 µM; that for `O=C(Nc1cccc(C2CCCN(c3ncnc4[nH]ccc34)C2)c1)Nc1cccnc1Cl` (stereo not drawn) [compound 202] was 1 to 10 µM.
Take `CC(C)c1cc(=O)nc(Nc2cccc(C3CCCN(c4ncnc5[nH]ccc45)C3)c2)[nH]1` (stereo not drawn) [compound 121, 2-(3-(1-(7H-pyrrolo[2,3-d]pyrimidin-4-yl)piperidin-3-yl)phenylamino)-6-isopropylpyrimidin-4(1H)-one]: the IC50 fell in the range of 1 to 10 µM.
On the same count and under the same terms, the figure for `O=C(Nc1ccccc1)Nc1nc(C2CCCN(c3ncnc4[nH]ccc34)C2)cs1` (stereo not drawn) [compound 116, 1-(4-(1-(7H-pyrrolo[2,3-d]pyrimidin-4-yl)piperidin-3-yl)thiazol-2-yl)-3-phenylurea] is 1 to 10 µM; for `CN(C)c1ccccc1NC(=O)Nc1cccc(C2CCCN(c3ncnc4[nH]ccc34)C2)c1` (stereo not drawn) [Cmpd 34, 1-(3-(1-(7H-pyrrolo[2,3-d]pyrimidin-4-yl)piperidin-3-yl)phenyl)-3-(2-(dimethylamino)phenyl)urea] it is 1 to 10 µM; for `O=C(NCc1ccccc1)Nc1cccc(C2CCCN(c3ncnc4[nH]ccc34)C2)c1` (stereo not drawn) [compound 219] it is 1 to 10 µM.
Same read-out and setting: the value for `N[C@H]1CCN(c2ccccc2NC(=O)Nc2cccc(C3CCCN(c4ncnc5[nH]ccc45)C3)c2)C1` (stereo partly drawn) [compound 169] was 0.1 to 0.999 µM.

Staying with this assay, now noted: read-out: IC50 (10 uM ATP); 10 uM ATP; in vitro Btk kinase assay, Example 41.
With `O=C(Nc1cccc(C2CCCN(c3ncnc4[nH]ccc34)C2)c1)Nc1ccccc1N1CC[C@@H](O)C1` (stereo partly drawn) [compound 149], the IC50 is below 0.1 µM.
For `O=C1[C@H](Nc2cc(Cl)cc(Cl)c2)CCN1[C@@H]1CCCN(c2ncnc3[nH]ccc23)C1` [compound 323, (R)-1-((R)-1-(7H-Pyrrolo[2,3-d]pyrimidin-4-yl)piperidin-3-yl)-3-(3,5-dichlorophenylamino)pyrrolidin-2-one], the IC50 was below 0.1 µM.
In the case of `Nc1ncnc(N2C[C@@H](F)C[C@@H](N3CCCC(Nc4cc(Cl)cc(Cl)c4)C3=O)C2)c1F` (stereo partly drawn) [compound 280, (3′R,5′S)-1′-(6-Amino-5-fluoropyrimidin-4-yl)-3-(3,5-dichlorophenylamino)-5′-fluoro-1,3′-bipiperidin-2-one], the concentration for half-maximal inhibition (IC50) is below 0.1 µM.
The same measure, in the same setting: the figure for `COc1ccccc1C(=O)Nc1cccc(C2CCCN(c3ncnc4[nH]ccc34)C2)c1` (stereo not drawn) [Cmpd 6, N-(3-(1-(7H-pyrrolo[2,3-d]pyrimidin-4-yl)piperidin-3-yl)phenyl)-2-methoxybenzamide] is above 10 µM; for `O=C(Nc1ccccc1)Nc1cc(C2CCCN(c3ncnc4[nH]ccc34)C2)cc(C(F)(F)F)c1` (stereo not drawn) [Cmpd 83, 1-(3-(1-(7H-pyrrolo[2,3-d]pyrimidin-4-yl)piperidin-3-yl)-5-(trifluoromethyl)phenyl)-3-phenylurea] it is above 10 µM; for `O=C(Nc1cccc(C2CCCN(c3ncnc4[nH]ccc34)C2)c1)NC1CCNCC1` (stereo not drawn) [compound 243] it is above 10 µM.
Still for that read-out and setting: the figure for `Cc1ccc(NC(=O)Nc2ccccc2)cc1C1CCCN(c2ncnc3[nH]ccc23)C1` (stereo not drawn) [Cmpd 79, 1-(3-(1-(7H-pyrrolo[2,3-d]pyrimidin-4-yl)piperidin-3-yl)-4-methylphenyl)-3-phenylurea] is above 10 µM; for `Cc1nn(C)c(C)c1NC(=O)Nc1cccc(C2CCCN(c3ncnc4[nH]ccc34)C2)c1` (stereo not drawn) [compound 244] it is above 10 µM; for `O=C(Nc1cccc(C2CCCN(c3ncnc4[nH]ccc34)C2)c1)Nc1ccccc1N1C[C@H](O)[C@@H](O)C1` (stereo partly drawn) [compound 150] it is below 0.1 µM.
Still for that read-out and setting: the figure for `c1cnc(Nc2cccc(C3CCCN(c4ncnc5[nH]ccc45)C3)c2)nc1` (stereo not drawn) [compound 141, N-(3-(1-(7H-pyrrolo[2,3-d]pyrimidin-4-yl)piperidin-3-yl)phenyl)pyrimidin-2-amine] is above 10 µM; for `O=C(Nc1cccc(C2CCCN(c3ncnc4[nH]ccc34)C2)c1)c1ccncc1` (stereo not drawn) [compound 11, N-(3-(1-(7H-pyrrolo[2,3-d]pyrimidin-4-yl)piperidin-3-yl)phenyl)isonicotinamide] it is above 10 µM.
Turning to `Nc1ncnc(N2CCOCC(N3CCCC(Nc4cc(Cl)cc(Cl)c4)C3=O)C2)c1F` (stereo not drawn) [compound 344], the IC50 is below 0.1 µM.
On the same count and under the same terms, the figure for `O=C(Nc1cccc(C2CCCN(c3ncnc4[nH]ccc34)C2)c1)Nc1c(Cl)cccc1N1CCCC1` (stereo not drawn) [Cmpd 50, 1-(3-(1-(7H-pyrrolo[2,3-d]pyrimidin-4-yl)piperidin-3-yl)phenyl)-3-(2-chloro-6-(pyrrolidin-1-yl)phenyl)urea] is below 0.1 µM; for `Cc1noc(C)c1NC(=O)Nc1cccc(C2CCCN(c3ncnc4[nH]ccc34)C2)c1` (stereo not drawn) [compound 254] it is above 10 µM.
The same measure, in the same setting: the figure for `Nc1ncnc(N2CCC[C@@H](N3CCCC(Nc4ccccc4S(=O)(=O)C4CCCCC4)C3=O)C2)c1F` (stereo partly drawn) [compound 320, (3′R)-1′-(6-Amino-5-fluoropyrimidin-4-yl)-3-(2-(cyclohexylsulfonyl)phenylamino)-1,3′-bipiperidin-2-one] is below 0.1 µM; for `O=C(NCC1CCS(=O)(=O)C1)Nc1cccc(C2CCCN(c3ncnc4[nH]ccc34)C2)c1` (stereo not drawn) [compound 247] it is above 10 µM.
For `S=C(Nc1ccccc1)Nc1cccc(C2CCCN(c3ncnc4[nH]ccc34)C2)c1` (stereo not drawn) [Cmpd 67, 1-(3-(1-(7H-pyrrolo[2,3-d]pyrimidin-4-yl)piperidin-3-yl)phenyl)-3-phenylthiourea], the half-inhibitory concentration (IC50) was above 10 µM.
In the case of `C[C@H](NC(=O)Nc1cccc(C2CCCN(c3ncnc4[nH]ccc34)C2)c1)C1CCCCC1` (stereo partly drawn) [compound 242], the IC50 was above 10 µM.
On the same count and under the same terms, the figure for `Nc1ncnc(N2CC[C@@H](C(F)(F)F)[C@H](N3CCC[C@@H](Nc4cc(Cl)cc(Cl)c4)C3=O)C2)c1F` [compound 335, trans (3R)-1′-(6-Amino-5-fluoropyrimidin-4-yl)-3-(3,5-dichlorophenylamino)-4′-(trifluoromethyl)-1,3′-bipiperidin-2-one] is below 0.1 µM; for `CC(C)(C)NC1CCCN([C@@H]2CCCN(c3ncnc(N)c3F)C2)C1=O` (stereo partly drawn) [compound 290, (3′R)-1′-(6-Amino-5-fluoropyrimidin-4-yl)-3-(tert-butylamino)-1,3′-bipiperidin-2-one] it is above 10 µM.
On to `O=C(Nc1ccccc1)Nc1ncc(C2CCCN(c3ncnc4[nH]ccc34)C2)s1` (stereo not drawn) [compound 115, 1-(5-(1-(7H-pyrrolo[2,3-d]pyrimidin-4-yl)piperidin-3-yl)thiazol-2-yl)-3-phenylurea], for which the 50% inhibitory concentration (IC50) is above 10 µM.
As to `O=C1C(NC2CCCCC2)CCCN1[C@@H]1CCCN(c2ncnc3[nH]ccc23)C1` (stereo partly drawn) [compound 304, (3′R)-3-(Cyclohexylamino)-1′-(7H-pyrrolo[2,3-d]pyrimidin-4-yl)-1,3′-bipiperidin-2-one], the IC50 is above 10 µM.
Same read-out and setting: the figure for `COc1ccc(C(=O)Nc2cccc(C3CCCN(c4ncnc5[nH]ccc45)C3)c2)cc1` (stereo not drawn) [Cmpd 8, N-(3-(1-(7H-pyrrolo[2,3-d]pyrimidin-4-yl)piperidin-3-yl)phenyl)-4-methoxybenzamide] is above 10 µM; for `Nc1ncnc(N2CCC[C@@H](N3CCCC(Nc4cc(C(F)(F)F)cc(C(F)(F)F)c4)C3=O)C2)c1F` (stereo partly drawn) [compound 310, (3′R)-1′-(6-Amino-5-fluoropyrimidin-4-yl)-3-(3,5-bis(trifluoromethyl)phenylamino)-1,3′-bipiperidin-2-one] it is below 0.1 µM; for `CC(C)NC(=O)Nc1cccc(C2CCCN(c3ncnc4[nH]ccc34)C2)c1` (stereo not drawn) [compound 241] it is above 10 µM.
The same measure, in the same setting: the value for `O=C(CNc1ccccc1)Nc1cccc(C2CCCN(c3ncnc4[nH]ccc34)C2)c1` (stereo not drawn) [Cmpd 17, N-(3-(1-(7H-pyrrolo[2,3-d]pyrimidin-4-yl)piperidin-3-yl)phenyl)-2-(phenylamino) acetamide] was above 10 µM.
